Test systems include SR leukemia; SNB-19 CNS; NCI-H460 lung; SF-295 CNS; HCT-116 colon; PC-3 prostate; SNB-75 CNS; KM12 colon; OVCAR-8 ovarian; SW-620 colon.
Assay in all cases: NCI-60 cell line screen, 48 h

Each structure is given as a SMILES string.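 96-well plates; 48 h exposure; 5 concentrations. Endpoints by linear interpolation between flanking doses. Not reached: highest tested concentration assigned. TGI marks complete inhibition of growth.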

Consider `C=C1CCCCCCCCCCC1S(=O)c1ccccc1` (configuration not stated), for which the TGI was 64.8 µM in the assay on SR leukemia; more than 100 µM with SNB-19 CNS; more than 100 µM in the assay on NCI-H460 lung; more than 100 µM in the assay on SF-295 CNS; more than 100 µM in the assay with HCT-116 colon; more than 100 µM with PC-3 prostate.

In the case of `O=C1CSC2(CCN(CCCN3c4ccccc4Sc4ccc(Cl)cc43)CC2)N1`, the TGI is 26 µM in the assay with SNB-19 CNS; 20.1 µM with SNB-75 CNS; 15.2 µM in the assay on NCI-H460 lung; 22 µM in the assay with SF-295 CNS; 19.4 µM in the assay on HCT-116 colon; 19.1 µM in the assay on KM12 colon. The TGI with PC-3 prostate was 16.9 µM; in the assay with OVCAR-8 ovarian, 23.8 µM; in the assay with SW-620 colon, 23.6 µM.

As to `O=C1NC(N2CCOCC2)=N/C1=C\c1ccccc1O`, the TGI in the assay on SNB-19 CNS, with SNB-75 CNS, in the assay with SF-295 CNS, in the assay with HCT-116 colon, in the assay on KM12 colon and in the assay on PC-3 prostate was more than 100 µM in each case. For the same compound, the TGI in the assay on OVCAR-8 ovarian and in the assay on SW-620 colon was more than 100 µM throughout.

With `COc1cccc(-c2cc(=O)c3cc(C)cnc3[nH]2)c1`, the TGI with SR leukemia is 95.7 µM; in the assay on SNB-19 CNS, more than 100 µM; in the assay with NCI-H460 lung it was more than 100 µM; in the assay with SF-295 CNS, more than 100 µM; in the assay on HCT-116 colon, more than 40 µM; with PC-3 prostate, more than 100 µM. For the same compound, in the assay with SW-620 colon, the TGI is more than 100 µM.

Regarding `Cc1nnc2c3c(-c4ccccc4)c(-c4ccccc4)oc3nc(N(C)C)n12`, the TGI in the assay on SR leukemia was 67.2 µM; in the assay on SNB-19 CNS it was more than 100 µM; in the assay with SNB-75 CNS, 72.4 µM; with SF-295 CNS it was more than 100 µM; in the assay on HCT-116 colon it was more than 100 µM; in the assay with KM12 colon, more than 100 µM. For the same compound, the TGI in the assay on OVCAR-8 ovarian and in the assay on SW-620 colon was more than 100 µM throughout.

Take `CC1(C)CCOC(=O)C(Cl)CC1Cl` (configuration not stated): the TGI with SR leukemia, in the assay on SNB-19 CNS, with NCI-H460 lung, in the assay on SF-295 CNS, in the assay with HCT-116 colon and in the assay with KM12 colon was more than 100 µM throughout. Also, the TGI with PC-3 prostate, in the assay with OVCAR-8 ovarian and with SW-620 colon was more than 100 µM each time.

For `C=C[C@H]1CN2CC[C@H]1C[C@@H]2[C@@H](O)c1ccnc2ccccc12`, the TGI with SNB-19 CNS, in the assay with SNB-75 CNS, in the assay with NCI-H460 lung, in the assay with SF-295 CNS, in the assay on HCT-116 colon and in the assay on KM12 colon was more than 100 µM throughout. Moreover, the TGI in the assay with PC-3 prostate, with OVCAR-8 ovarian and in the assay on SW-620 colon was more than 100 µM in each case.

As for `CC1=C(C#N)S(=O)(=O)c2c(oc(C)c2C)N1`, the TGI with SNB-19 CNS, in the assay on SNB-75 CNS, with NCI-H460 lung, with SF-295 CNS, in the assay with HCT-116 colon and in the assay with KM12 colon was more than 100 µM in each case. For the same compound, the TGI in the assay on PC-3 prostate, in the assay on OVCAR-8 ovarian and with SW-620 colon was more than 100 µM in each case.

Turning to `Clc1ccc(-c2nc(-c3ccc(Cl)cc3)[s+]s2)cc1`, the TGI in the assay on SR leukemia was 94.2 µM; with SNB-19 CNS, more than 100 µM; with NCI-H460 lung, more than 100 µM; in the assay with SF-295 CNS it was more than 100 µM; in the assay on HCT-116 colon, more than 100 µM; in the assay with KM12 colon it was more than 100 µM. In addition, the TGI in the assay on PC-3 prostate, with OVCAR-8 ovarian and with SW-620 colon was more than 100 µM throughout.

Regarding `CCOC(=O)/C=C(/C(=O)OCC)n1cc(C)c(=O)n(Cc2cnnn2CCCCOC(C)=O)c1=O`, the TGI was more than 100 µM in the assay with SNB-19 CNS; more than 100 µM in the assay on SNB-75 CNS; 71.5 µM with NCI-H460 lung; more than 100 µM in the assay with SF-295 CNS; 32.8 µM with HCT-116 colon; more than 100 µM in the assay with KM12 colon. Moreover, the results for the TGI in the assay on PC-3 prostate, in the assay with OVCAR-8 ovarian and with SW-620 colon were more than 100 µM, 55.4 µM and more than 100 µM, respectively.

For the compound `CN(C)c1ccc(C(c2ccc(N(C)C)cc2)c2ccc([N+](=O)[O-])cc2)cc1`, the TGI with SR leukemia, with SNB-19 CNS, with NCI-H460 lung, in the assay on SF-295 CNS, in the assay on HCT-116 colon and in the assay with KM12 colon was more than 100 µM in each case. Further, the TGI in the assay on PC-3 prostate, in the assay on OVCAR-8 ovarian and with SW-620 colon was more than 100 µM in each case.

Take `CN(C)c1ccc(/C=C2\N=C(c3ccccc3)N(c3nc4c(Cl)cc(Cl)cc4s3)C2=O)cc1`: the TGI in the assay on SR leukemia, in the assay on SNB-19 CNS, in the assay with NCI-H460 lung, with SF-295 CNS, in the assay on HCT-116 colon and in the assay on KM12 colon was more than 100 µM each time. Moreover, the TGI in the assay on PC-3 prostate, with OVCAR-8 ovarian and with SW-620 colon was more than 100 µM in each case.

As to `COc1ccc2nc3c([N+](=O)[O-])ccc4c3c(c2c1)NCCN4C`, the TGI in the assay on SR leukemia was more than 100 µM; in the assay with SNB-19 CNS it was 8.77 µM; in the assay with NCI-H460 lung it was 1.48 µM; in the assay with SF-295 CNS, 7.58 µM; in the assay on HCT-116 colon, 2.88 µM; in the assay with KM12 colon it was 23.2 µM. Moreover, the TGI with PC-3 prostate was determined as 4.54 µM; in the assay with OVCAR-8 ovarian, 14.9 µM; in the assay with SW-620 colon, 4.76 µM.

Turning to `O=c1[nH]cnc2c1ncn2[C@H]1CO[C@@H](CO)[C@@H]1O`, the TGI in the assay on SR leukemia, in the assay on SNB-75 CNS, with NCI-H460 lung, with SF-295 CNS, in the assay on HCT-116 colon and with KM12 colon was more than 100 µM in each case. The TGI in the assay on PC-3 prostate and with SW-620 colon was more than 100 µM each time.

For the compound `CC[C@H]1C=CCC[C@@]2(C[C@@H]3CC[C@@H]4[C@H](C(=O)OCCCCCCCCCCCCCCCC(=O)N(CCCN)C[C@@H](O)CCN)[C@]5(CCC[C@@H](C)O5)NC(=[N+]34)N2)O1`, the TGI in the assay on SR leukemia worked out at 0.397 µM; in the assay with SNB-19 CNS, 1.27 µM; in the assay on NCI-H460 lung, 2.15 µM; in the assay with SF-295 CNS it was 3.52 µM; in the assay with HCT-116 colon it was 1.16 µM; with KM12 colon, 1.58 µM. For the same compound, the TGI in the assay on PC-3 prostate was 1.96 µM; in the assay with OVCAR-8 ovarian, 7.13 µM; in the assay with SW-620 colon, 3.87 µM.

Values taken from PubChem BioAssay (NCI).
